Measurements from ChEMBL document CHEMBL1201862, “PubChem BioAssay data set” (2004).
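Five concentrations, 48 hours, 96-well plates. Abbreviation: GI50, concentration required for 50% inhibition of growth.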 Calls of active or inactive are those of the source. No stated cut-off is given here; in the data, active = GI50 up to about 1.1 µM and inactive = higher.

How the values were obtained:
Assay in all cases: inhibition of tumour cell growth, NCI panel, 48 h
MDA-MB-231 = system: MDA-MB-231
SK-MEL-2 = system: SK-MEL-2
SF-539 = system: SF-539
786-0 = system: 786-0
K562 = system: K562
NCI-H23 = system: NCI-H23
PC-3 = system: PC-3
EKVX = system: EKVX
SK-OV-3 = system: SK-OV-3
HCT-116 = system: HCT-116
SNB-19 = system: SNB-19
SF-295 = system: SF-295
MCF7 = system: MCF7
OVCAR-5 = system: OVCAR-5
UACC-62 = system: UACC-62
SR = system: SR
HOP-92 = system: HOP-92

| SMILES | GI50 (MDA-MB-231) | GI50 (SK-MEL-2) | GI50 (SF-539) | GI50 (786-0) | GI50 (K562) | GI50 (NCI-H23) | GI50 (PC-3) | GI50 (EKVX) | GI50 (SK-OV-3) | GI50 (HCT-116) | GI50 (SNB-19) | GI50 (SF-295) | GI50 (MCF7) | GI50 (OVCAR-5) | GI50 (UACC-62) | GI50 (SR) | GI50 (HOP-92) |
| --- | --- | --- | --- | --- | --- | --- | --- | --- | --- | --- | --- | --- | --- | --- | --- | --- | --- |
| Cc1cc2nc3c(C#N)c(-c4ccccc4)cc(Nc4cccc(C(F)(F)F)c4)n3c2cc1C | 3.43 µM (inactive) | 2.61 µM (inactive) | 3.78 µM (inactive) | 4.4 µM (inactive) | 0.392 µM (active) | 5.25 µM (inactive) | 2.56 µM (inactive) | 4.68 µM (inactive) | 6.1 µM (inactive) | 2.7 µM (inactive) | 4.86 µM (inactive) | 7.19 µM (inactive) | 3.91 µM (inactive) | 12.9 µM (inactive) |  |  |  |
| COC(=O)c1c(C)cccc1C1CN=NC12Cc1ccc(C)c(C)c1C2=O (centres undefined) | 39.4 µM (inactive) |  | 68.9 µM (inactive) | 51.3 µM (inactive) | 18.2 µM (inactive) | 46.5 µM (inactive) |  | 12.2 µM (inactive) |  | 14.8 µM (inactive) | 50.9 µM (inactive) | 42.7 µM (inactive) | 24.4 µM (inactive) | > 100 µM (inactive) | 15.3 µM (inactive) | 16.6 µM (inactive) | 28.6 µM (inactive) |
| Cc1ccc(Cl)c2c(=O)c3ccc(N)cc3sc12 | 22.2 µM (inactive) | 20.1 µM (inactive) | 16 µM (inactive) | 24.9 µM (inactive) | 18.4 µM (inactive) | 23.9 µM (inactive) | 25 µM (inactive) | 5.55 µM (inactive) |  | 16.9 µM (inactive) | 27.9 µM (inactive) | 13.5 µM (inactive) | 15.7 µM (inactive) | 28 µM (inactive) | 14.9 µM (inactive) |  |  |
| O=C1CCCC2=C1CC1=C(CCCC1=O)N2c1cccc2ccccc12 |  |  | > 100 µM (inactive) | 57.1 µM (inactive) | 44 µM (inactive) | 52.5 µM (inactive) | > 100 µM (inactive) | > 100 µM (inactive) | > 100 µM (inactive) |  | 75 µM (inactive) |  | 41.1 µM (inactive) | > 100 µM (inactive) | 64.1 µM (inactive) | > 100 µM (inactive) | 33 µM (inactive) |
| Cc1ccc(Nc2cn(COCc3ccccc3)c(=O)[nH]c2=O)cc1 |  |  |  | 43.5 µM (inactive) | > 100 µM (inactive) | 25.5 µM (inactive) | > 100 µM (inactive) | > 100 µM (inactive) |  | > 100 µM (inactive) | 75.2 µM (inactive) | 39.7 µM (inactive) | > 100 µM (inactive) | > 100 µM (inactive) | 43.9 µM (inactive) | > 100 µM (inactive) | > 100 µM (inactive) |
| CC(=O)[C@@H]1C/C(=C\OCc2ccccc2)O[C@H]1C | > 100 µM (inactive) |  | > 100 µM (inactive) | > 100 µM (inactive) | 54 µM (inactive) | > 100 µM (inactive) |  | > 100 µM (inactive) | > 100 µM (inactive) | > 100 µM (inactive) | > 100 µM (inactive) | > 100 µM (inactive) |  | > 100 µM (inactive) |  |  | > 100 µM (inactive) |
| CCCCCCCCCCCCCCCCCCNc1ccn(C2OC(COP(=O)(O)OCC3CCC(n4cnc5c(=O)[nH]cnc54)O3)C(O)C2O)c(=O)n1 (centres undefined) |  | > 100 µM (inactive) | 83.8 µM (inactive) | 43.5 µM (inactive) |  | > 100 µM (inactive) | 14.2 µM (inactive) | > 100 µM (inactive) | > 100 µM (inactive) | > 100 µM (inactive) | > 100 µM (inactive) | > 100 µM (inactive) | > 100 µM (inactive) | 35.4 µM (inactive) | > 100 µM (inactive) |  | > 100 µM (inactive) |
| CC1=CC2(O)OC3(CC2=C(C)C)C(C)CCC13 (centres undefined) | > 100 µM (inactive) | > 100 µM (inactive) | > 100 µM (inactive) | > 100 µM (inactive) | > 100 µM (inactive) | > 100 µM (inactive) |  | > 100 µM (inactive) | > 100 µM (inactive) | > 100 µM (inactive) | > 100 µM (inactive) | > 100 µM (inactive) | > 100 µM (inactive) | > 100 µM (inactive) | > 100 µM (inactive) |  | > 100 µM (inactive) |
